63 compounds from a melting point compilation (Tetko et al.; mined from patent text by program, amines drawn as free bases though some values may be those of a salt) can be followed below.

The melting point is the temperature, or range, at which the solid turns liquid.

Consider `CCOC(=O)C1=C(C)Nc2nc(N3CCOCC3)nc(N3CCOCC3)c2C1c1cccc(OC)c1OC` (stereo not drawn), for which the melting point turned out to be 194 °C.

For `CC(O)CNc1cc(Cl)cc(NCC(C)O)c1[N+](=O)[O-]` (stereo not drawn), the melting point turned out to be 170 °C.

`CCCCc1nc2c(N)nc3ccc(OCC(=O)N(CC)CC)cc3c2n1C` displayed a melting point of 186 to 188 °C.

`Cc1cc(-c2ccc(C#N)cc2)sc1C(=O)N[C@H](C)[C@](O)(Cn1cncn1)c1ccc(F)cc1F` yielded a melting point of 176 to 177 °C.

For `COc1ccc2c(c1)c(CC(=O)O)c(C)n2C(=O)c1ccc([N+](=O)[O-])o1`, the melting point was in the range of 178 to 180 °C.

`CCC(C)Nc1c(-c2c(F)cc(F)cc2F)c(F)nc2ncncc12` (stereo not drawn) returned a melting point of 199 °C.

Take `O=C(Nc1cnccn1)Nc1cccc2c1C1CC3(CCN1C2=O)SCCS3` (stereo not drawn): the melting point came to 236 °C.

In the case of `CS(=O)(=O)OCCc1ccc(OCc2ccccc2)cc1`, the melting point lay in the range of 48 to 50 °C.

For the compound `Cc1cc(C)c(C(=O)P(=O)(Cc2ccccc2)c2ccccc2)c(C)c1` (stereo not drawn), the melting point was in the range of 113 to 114 °C.

For `CC(C)(C)OC(=O)NN1CCC(C(=O)O)CC1`, the melting point is 133 to 135 °C.

The compound `Cn1c2cccc(Br)c2c2c(CC(=O)N3CCCC3)nn(-c3ccccc3)c(=O)c21` registered a melting point of 209 to 210 °C.

For `O=CN1CCCN(Cc2ccc(Cl)cc2)C1=C[N+](=O)[O-]`, the melting point lay in the range of 131 to 133 °C.

Regarding `CC1(C)NC(=O)N(CC(O)Cc2cc(C(C)(C)C)c(O)c(C(C)(C)C)c2)C1=O` (stereo not drawn), the melting point lay in the range of 175 to 176 °C.

As for `Cc1ccc(C=CC(C#N)=NO)cc1`, the melting point lay in the range of 135 to 137 °C.

As to `Brc1ccc2c(c1)Sc1ccccc1CC2`, the melting point lay within 69 to 71 °C.

In the case of `CCCCCOc1cc(C=Cc2nc3c(s2)NCCCC3)ccc1OC`, the melting point was 124 to 125 °C.

For the compound `COc1cc2c(cc1OCc1ccccc1)[nH]c1cc(-c3ccccc3Cl)c3c(c12)C(=O)NC3=O`, the melting point lay in the range of 260 to 264 °C.

`CC(C)(C)c1cc(Cn2nc(C=Cc3nn(Cc4cc(C(C)(C)C)c(O)c(C(C)(C)C)c4)c(=O)o3)oc2=O)cc(C(C)(C)C)c1O`: the melting point worked out at 263 °C.

On to `CS(=O)(=O)Nc1ccc(CCOc2ccc(C=C3SC(=O)NC3=O)cc2)cc1`, for which the melting point came to 130 °C.

For the compound `COc1ccc2c(n1)CCC(=NO)C2`, the melting point fell in the range of 124 to 126 °C.

For the compound `O=C(O)Cc1cc([N+](=O)[O-])ccc1Sc1cccc(Br)c1`, the melting point is 123 to 125 °C.

Compound `O=C(CN1C(=O)c2ccccc2S1(=O)=O)Nc1ccccc1` yielded a melting point of 180 to 182 °C.

As for `C=CC(=O)OCCCNC(=O)CCc1cc(-n2nc3ccccc3n2)c(O)c(C(C)(C)C)c1`, the melting point was in the range of 87 to 89 °C.

`COc1ccc(-c2ccc3c(c2)C=C(C(=O)Nc2ccc(CN(C)C4CCC5(CC4)OCCO5)cc2)CCS3(=O)=O)cc1` gave a melting point of 222 to 228 °C.

As to `COC(=O)c1cc(CCCc2coc3nc(N)nc(N)c23)cs1`, the melting point fell in the range of 156 to 157 °C.

As for `COC(=O)c1sccc1S(=O)(=O)NC(=O)Nc1nc(C)cc(OC)n1`, the melting point lay within 165 to 173 °C.

Take `CN(C)c1ccc(OCc2ccncc2)cc1`: the melting point lay in the range of 123 to 125 °C.

Regarding `C=CC(=O)c1cn(C)c2ccccc12`, the melting point was in the range of 106 to 107 °C.

With `Cc1cc(C2=CCN(S(=O)(=O)C3(C(=O)O)CCOCC3)CC2)ccc1-c1ccccc1`, the melting point lay in the range of 211 to 213 °C.

Compound `CCCCNc1ccc(C(=O)O)cc1N` returned a melting point of 158 °C.

For `COCCNS(=O)(=O)c1ccc(C(CC2CCCC2)C(=O)Nc2nc3ccc(OC)nc3s2)cc1` (stereo not drawn), the melting point was in the range of 209 to 211 °C.

Turning to `Cc1cccc(N2CCN(CCc3c(C)nc4c(C)cccn4c3=O)CC2)c1`, the melting point was 106 °C.

The compound `CCN(CC)c1ccc2nc3c4ccccc4c(=Nc4ccc5ccccc5n4)cc-3oc2c1` returned a melting point of 234 to 236 °C.

Turning to `Fc1cccc2oc(CCC#Cc3ccccn3)nc12`, the melting point is 89 to 89.5 °C.

As for `CCOC(=O)N1N=C(c2ccc(N)cc2)c2cc(Cl)c(Cl)cc2CC1C` (stereo not drawn), the melting point was 190 to 192 °C.

As for `O=C1CCC(C2CO2)N1Cc1ccccc1Cl` (stereo not drawn), the melting point fell in the range of 81 to 83 °C.

With `COc1ccc(S(=O)(=O)C2(C(=O)NO)CCN(C(C)(C)C)CC2)cc1`, the melting point came out at 40 °C.

On to `OCc1ccc(OCCCCl)cc1`, for which the melting point was 65 °C.

Take `NC(=NO)c1ccc(NC(=O)CC(=O)N2CCC(OCC(=O)O)CC2)cc1`: the melting point lay in the range of 133 to 135 °C.

The compound `COC(=O)c1cc(Cl)ccc1NC(=O)c1cc(OC)c(OC)c(OC)c1` gave a melting point of 179 to 180 °C.

The compound `CCCCCCCOc1ccc(C(=O)Nc2ccccc2O)cc1` showed a melting point of 131 to 133 °C.

In turn, `CCC=Cc1nc2ccccc2n1-c1cccc(C#N)c1C` returned a melting point of 125 °C.

Compound `COC(=S)C(C)Cc1ccc(OCc2nc3ccc(SC)cc3n2C)cc1` (stereo not drawn) gave a melting point of 97 to 100 °C.

The compound `O=[N+]([O-])c1ccc(N=Nc2ccc(N(CC3CO3)CC3CO3)cc2)cc1` (stereo not drawn) had a melting point of 135 to 136 °C.

Compound `O=C(O)c1cn(C2CCC2)c2c(F)c(F)c(F)cc2c1=O` displayed a melting point of 192 to 194 °C.

Compound `Cc1c(NC(=O)c2ccc(OC[C@@H]3CCCO3)cc2F)ccc2c1cc(CNCC1CCOCC1)n2C` displayed a melting point of 149 °C.

The compound `CCCC(C#N)(Cn1cncn1)c1ccc(F)cc1` (stereo not drawn) came in with a melting point of 75 to 76 °C.

Take `O=C1NC(=O)C(Nc2ccc(CCNCC(O)COc3ccc4ccccc4c3)cc2)S1` (stereo not drawn): the melting point fell in the range of 90 to 91 °C.

`CC(C)c1ccc2[nH]c(=O)c(C(=O)c3ccccc3)c(O)c2c1` had a melting point of 270 °C.

`Cc1ccc(C(C#N)C(=O)C(=O)C(C#N)c2ccc(C)cc2)cc1` (stereo not drawn) displayed a melting point of 246 to 250 °C.

Consider `CC(C)(C)c1cc(C=Cc2cc(C=Cc3cc(C(C)(C)C)cc(C(C)(C)C)c3)cc(C=C(Br)Br)c2)cc(C(C)(C)C)c1`, for which the melting point was in the range of 148 to 150 °C.

In turn, `COc1ccc(C(=O)N2CCCCC2)c(NC(=O)N[C@@H](Cc2ccc(NC(=O)c3c(Cl)cccc3Cl)cc2)C(=O)O)c1` yielded a melting point of 176 °C.

With `CCOCc1nc2c(N)nc3ccccc3c2n1CC1(O)CCCC1`, the melting point was in the range of 156 to 158 °C.

On to `CCc1cccc(C)c1CNc1nc(OC)cc(NC)c1[N+](=O)[O-]`, for which the melting point lay in the range of 166 to 167 °C.

Compound `NS(=O)(=O)Oc1cccc(-n2cnc(-c3ccccc3)c2)c1` displayed a melting point of 209 to 211 °C.

`CC(C)(C)OC(=O)NC(C)(C(=O)O)c1nc2ccccc2s1` (stereo not drawn) showed a melting point of 148 to 150 °C.

Compound `O=C1C(c2cccc(Br)c2)n2cncc2CN1Cc1ccncc1` (stereo not drawn) yielded a melting point of 50 to 54 °C.

On to `O=C(O)c1ccc(-c2ccc(S(=O)(=O)N3CCCC(CO)C3)cc2)[nH]c1=O` (stereo not drawn), for which the melting point lay within 300 to 304 °C.

Compound `CN1Cc2cccnc2N(c2cccc(F)c2)C1=O` came in with a melting point of 189 to 192 °C.

In the case of `Cc1cc(C)c(C(=O)O)s1`, the melting point fell in the range of 153 to 155 °C.

With `CNC(=O)C(N)C(N)=O` (stereo not drawn), the melting point fell in the range of 121 to 122 °C.

With `COc1ccc(C(=O)O)c2c1OC(C)(C)C2`, the melting point is 147 to 149 °C.

In turn, `O=P1(Oc2c(Cl)cc(Cl)cc2Cl)OCC2(CO1)COP(=O)(Oc1c(Cl)cc(Cl)cc1Cl)OC2` (stereo not drawn) had a melting point of 283 °C.
